Here are results for 13 compounds from PubChem BioAssay AID342 (DTP/NCI, 2004).

By T/C is commonly meant the result in the treated group divided by that in the control group, in per cent.

In the test the test system is Swiss mice, Sarcoma 180 sc, mean tumor weight T/C. The test can be described thus: NCI In Vivo Anticancer Drug Screen. Data for tumor model Sarcoma 180 (subcutaneous) in Swiss mice. The conditions noted are these: endpoint: mean tumor weight, higher = larger tumour. A digest of the protocol: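 Transplantable tumors were established in mice, compound was given, then survival or tumor size was recorded. The treated value was divided by the vehicle-control value.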

The mark [1] stands for this setting: dose: 25.0 mg/kg/injection, schedule: Q01DX007 (ip), vehicle: carboxymethylcellulose (CMC).
[2] abbreviates: dose: 50.0 mg/kg/injection, schedule: Q01DX007 (ip), vehicle: carboxymethylcellulose (CMC).
[3] abbreviates: dose: 125.0 mg/kg/injection, schedule: Q01DX007 (ip), vehicle: carboxymethylcellulose (CMC).

Structures are written as SMILES. Values joined by “and” are separate entries in the source; they are usually repeats but may differ in a detail not shown here. Identical values can stand only once.

For the compound `Cn1cnc([N+](=O)[O-])c1Sc1nc(N)nc2nc[nH]c12`, the T/C was 95 % of control (dose: 1.35 mg/kg/injection, schedule: Q#A X014 (ip), vehicle: methylcellulose (MC)); 31 % of control (dose: 3.0 mg/kg/injection, schedule: Q#A X014 (ip), vehicle: methylcellulose (MC)); 27 % of control (dose: 5.0 mg/kg/injection, schedule: Q#A X014 (ip), vehicle: methylcellulose (MC)); 29 % of control (dose: 5.15 mg/kg/injection, schedule: Q#A X014 (ip), vehicle: methylcellulose (MC)); 22 % of control (dose: 7.5 mg/kg/injection, schedule: Q#A X014 (ip), vehicle: methylcellulose (MC)); 29 % of control (dose: 7.75 mg/kg/injection, schedule: Q#A X014 (ip), vehicle: methylcellulose (MC)). Further, the T/C (dose: 11.5 mg/kg/injection, schedule: Q#A X014 (ip), vehicle: methylcellulose (MC)) was 3 % of control.
In the case of `CN(C)[C@@H]1C(=O)C(C(=O)NCNc2nc(=S)c3[nH]cnc3[nH]2)=C(O)[C@@]2(O)C(=O)C3=C(O)c4c(O)cccc4[C@@](C)(O)[C@H]3C[C@@H]12`, the T/C is, setting by setting: under setting [1], 26 % of control; under setting [2], 15 % of control.
For `CC1NC(=O)NC1CCCCCC(=O)O` (stereo not given), the T/C is 103 % of control under setting [3]; 73 % of control (dose: 250.0 mg/kg/injection, schedule: Q01DX007 (ip), vehicle: carboxymethylcellulose (CMC)); 122 % of control (dose: 500.0 mg/kg/injection, schedule: Q01DX007 (ip), vehicle: carboxymethylcellulose (CMC)); 105 % of control (dose: 1000.0 mg/kg/injection, schedule: Q01DX007 (ip), vehicle: carboxymethylcellulose (CMC)).
For `Cc1nc2nc(N)nc(N)c2nc1C`, the T/C runs as follows: (dose: 10.0 mg/kg/injection, schedule: Q01DX007 (ip), vehicle: carboxymethylcellulose (CMC)) 89 % of control; (dose: 11.46 mg/kg/injection, schedule: Q01DX007 (ip), vehicle: carboxymethylcellulose (CMC)) 106 % of control; (dose: 20.0 mg/kg/injection, schedule: Q01DX007 (ip), vehicle: carboxymethylcellulose (CMC)) 77 % of control; (dose: 22.92 mg/kg/injection, schedule: Q01DX007 (ip), vehicle: carboxymethylcellulose (CMC)) 77 % of control; (dose: 40.0 mg/kg/injection, schedule: Q01DX007 (ip), vehicle: carboxymethylcellulose (CMC)) 68 % of control; (dose: 45.85 mg/kg/injection, schedule: Q01DX007 (ip), vehicle: carboxymethylcellulose (CMC)) 86 % of control. Besides, the T/C is 81 % of control (dose: 80.0 mg/kg/injection, schedule: Q01DX007 (ip), vehicle: carboxymethylcellulose (CMC)) and 51 % of control (dose: 91.7 mg/kg/injection, schedule: Q01DX007 (ip), vehicle: carboxymethylcellulose (CMC)).
On to `CCc1nc(N)nc(N)c1-c1ccc(Cl)cc1`, for which the T/C is 114 % of control (dose: 6.25 mg/kg/injection, schedule: Q01DX007 (ip), vehicle: carboxymethylcellulose (CMC)); 88 % of control (dose: 12.5 mg/kg/injection, schedule: Q01DX007 (ip), vehicle: carboxymethylcellulose (CMC)); 114 % of control under setting [1]; 77 % of control under setting [2].
For `COC(=O)[C@@H]1c2cc3c(c(O)c2[C@@H](OC2OC(C)C(OC)C(C)(OC)C2OC)C[C@]1(C)O)C(=O)c1c(O)cc2c(c1C3=O)O[C@H]1O[C@]2(C)[C@H](O)[C@@H](N(C)C)[C@@H]1O` (stereo not given in full), the T/C (dose: 0.2 mg/kg/injection, schedule: Q01DX007 (ip), vehicle: saline) was 77 % of control; the T/C (dose: 0.3 mg/kg/injection, schedule: Q01DX007 (ip), vehicle: saline) was 81 % of control; the T/C (dose: 0.44 mg/kg/injection, schedule: Q01DX007 (ip), vehicle: saline) was 60 % of control; the T/C (dose: 0.67 mg/kg/injection, schedule: Q01DX007 (ip), vehicle: saline) is 57 % of control; the T/C (dose: 1.0 mg/kg/injection, schedule: Q01DX007 (ip), vehicle: saline) is 50 % of control.
With `CC(=O)c1cccc(NC2C(N)C(NC(=O)N(C)C)(C(C)O)C(C)(O)C2(O)COC(=O)c2c(C)cccc2O)c1` (stereo not given), the T/C runs as follows: (dose: 0.5 mg/kg/injection, schedule: Q01DX007 (ip), vehicle: other) 88 % of control; (dose: 1.0 mg/kg/injection, schedule: Q01DX007 (ip), vehicle: other) 81 % of control; (dose: 2.0 mg/kg/injection, schedule: Q01DX007 (ip), vehicle: other) 110 % of control; (dose: 2.0 mg/kg/injection, schedule: Q01DX007 (ip), vehicle: saline) 66 % of control.
For `NC(=O)Nc1n[se]nc1C(=O)O`, the T/C was 111 % of control (dose: 20.0 mg/kg/injection, schedule: Q01DX007 (ip), vehicle: saline) and 75 % of control (dose: 30.0 mg/kg/injection, schedule: Q01DX007 (ip), vehicle: saline).
For the compound `O=C(O)Cc1c[nH]c2ccccc12`, the T/C was 64 % of control (dose: 31.3 mg/kg/injection, schedule: Q01DX007 (ip), vehicle: saline); 71 % of control (dose: 62.5 mg/kg/injection, schedule: Q01DX007 (ip), vehicle: saline); 52 % of control (dose: 125.0 mg/kg/injection, schedule: Q01DX007 (ip), vehicle: saline); 95 % of control (dose: 250.0 mg/kg/injection, schedule: Q01DX007 (ip), vehicle: saline).
Turning to `CN(/N=N/N(C)c1ccccc1)c1ccccc1`, the T/C runs as follows: (dose: 7.8 mg/kg/injection, schedule: Q01DX007 (ip), vehicle: carboxymethylcellulose (CMC)) 72 % of control; (dose: 15.6 mg/kg/injection, schedule: Q01DX007 (ip), vehicle: carboxymethylcellulose (CMC)) 62 % of control; (dose: 31.3 mg/kg/injection, schedule: Q01DX007 (ip), vehicle: carboxymethylcellulose (CMC)) 75 % of control; (dose: 62.5 mg/kg/injection, schedule: Q01DX007 (ip), vehicle: carboxymethylcellulose (CMC)) 49 % of control and 74 % of control; under setting [3], 37 % of control.
As for `COc1ccc2c(c1)CC[C@@H]1[C@@H]2CC[C@]2(C)C[C@@](C)(O)C[C@@H]12`, the T/C by setting is: (dose: 0.25 mg/kg/injection, schedule: Q#A X014 (sc), vehicle: steriod suspending solution) 100 % of control; (dose: 1.25 mg/kg/injection, schedule: Q#A X014 (sc), vehicle: steriod suspending solution) 84 % of control; (dose: 2.5 mg/kg/injection, schedule: Q#A X014 (ip), vehicle: methylcellulose (MC)) 94 % of control; (dose: 10.0 mg/kg/injection, schedule: Q#A X014 (ip), vehicle: methylcellulose (MC)) 98 % of control.
`CC(C)(c1ccccc1)c1ccc(O)cc1`: the T/C (dose: 37.5 mg/kg/injection, schedule: Q01DX007 (ip), vehicle: carboxymethylcellulose (CMC)) is 64 % of control; the T/C (dose: 75.0 mg/kg/injection, schedule: Q01DX007 (ip), vehicle: carboxymethylcellulose (CMC)) is 73 % of control; the T/C (dose: 150.0 mg/kg/injection, schedule: Q01DX007 (ip), vehicle: carboxymethylcellulose (CMC)) is 44 % of control.
As for `CCOC(=O)C1=C(C)NC(C)=C(C(=O)OCC)C1C`, the T/C reads like this: (dose: 3.1 mg/kg/injection, schedule: Q01DX007 (ip), vehicle: other) 50 % of control; (dose: 6.25 mg/kg/injection, schedule: Q01DX007 (ip), vehicle: other) 33 % of control; (dose: 31.2 mg/kg/injection, schedule: Q01DX007 (ip), vehicle: other) 42 % of control; (dose: 31.25 mg/kg/injection, schedule: Q01DX007 (ip), vehicle: other) 60 % of control; (dose: 62.5 mg/kg/injection, schedule: Q01DX007 (oral), vehicle: other) 57 % of control; (dose: 62.5 mg/kg/injection, schedule: Q01DX007 (sc), vehicle: other) 98 % of control. In addition, the T/C is 60 % of control (dose: 62.5 mg/kg/injection, schedule: Q02DX004 (ip), vehicle: other); 60 % of control (dose: 62.5 mg/kg/injection, schedule: Q03DX003 (ip), vehicle: other); 69 % of control (dose: 100.0 mg/kg/injection, schedule: Q01DX007 (ip), vehicle: other); 84 % of control (dose: 125.0 mg/kg/injection, schedule: Q01DX007 (oral), vehicle: other); 57 % of control (dose: 125.0 mg/kg/injection, schedule: Q01DX007 (sc), vehicle: other); 50 % of control (dose: 125.0 mg/kg/injection, schedule: Q02DX004 (ip), vehicle: other). In addition, the T/C was 60 % of control (dose: 125.0 mg/kg/injection, schedule: Q03DX003 (ip), vehicle: other); 29 % of control (dose: 175.0 mg/kg/injection, schedule: Q01DX007 (ip), vehicle: other); 76 % of control (dose: 250.0 mg/kg/injection, schedule: Q01DX007 (oral), vehicle: other); 60 % of control (dose: 250.0 mg/kg/injection, schedule: Q01DX007 (sc), vehicle: other); 36 % of control (dose: 250.0 mg/kg/injection, schedule: Q02DX004 (ip), vehicle: other); 54 % of control (dose: 250.0 mg/kg/injection, schedule: Q03DX003 (ip), vehicle: other).
